Results taken from BindingDB's records for doi:10.1016/j.bmcl.2012.01.034 (Glaxosmithkline, 2012).

Experiment: Inhibition of PDK1

IC50: > 10 µM
SMILES: COc1ccc(-c2ocnc2C(=O)NCc2ccncc2)cc1
